Legend:
cGAS = cGAS localization by confocal microscopy in CD4+ T cells; format: cell-based, human; details: activated CD4+ T cells overexpressing IRF3 or RELA K5R, FIG. 5D, 5E
Experimental: 4 to 5 days following transduction, 500,000 cells were plated on 0.1% poly-L lysine in water (Sigma #8920) coated coverslips and left for 30 minutes to attach. Cells were fixed in PBS 4% paraformaldehyde for 20 minutes at room temperature (RT). Coverslips were washed twice in PBS and quenched with 500 μl of freshly prepared PBS Glycine (375 mg Glycine in 50 mL of PBS) for 10 minutes at room temperature. […] Coverslips were incubated with primary antibody against cGAS (clone D1 D3G) or isotype control (clone DA1E) at a concentration of 0.085 μg/ml in PBS 0.2% BSA 0.05% saponin and left overnight at 4° C. in a moist chamber. Coverslips were washed 5 times with PBS 0.2% BSA 0.05% saponin and incubated in secondary antibody goat anti-Rabbit IgG at 1:400 (Invitrogen #A21246) for 45 minutes at RT. Coverslips were washed 5 times with PBS 0.2% BSA 0.05% saponin, rinsed in water and mounted on a glass slide using 10 μl fluoromount-G with DAPI (Invitrogen #00-4959-520). Glass slides were allowed to dry in a 37° C. chamber for 30 minutes and stored at 4° C. Images were acquired on a Leica Dml8 inverted microscope equipped with an SP8 confocal unit using a 40× (1.3 NA) oil objective. Image analysis was performed using Fiji software^77. […] Average cGAS and GFP intensities were measured in the whole cell, the nuclei and the cytosol (defined by the whole cell excluding the nuclear region).

[1] = system: STING, TBK1, IRF3, RELA, IRF7; test: Western blot of key signaling proteins involved in STING signaling; format: cell-based, human
Experimental: 0.5 million cells were lysed for 30 minutes on ice in 50 μl RIPA buffer (50 mM Tris HCl, 150 mM NaCl, 0.1% SDS, 0.5% DOC, 1% NP-40) with Protease inhibitor (Roche #1187358001). To evaluate, phospho-proteins 50 mM NaF and 1 mM sodium orthovanadate were added to the lysis buffer. Protein lysates were cleared by centrifugation at 12,000 g for 10 to 12 minutes at 4° C. 10 μl of 6× Laemmli buffer (fisher scientific #J61337) was added to 50 μl protein lysates and samples were boiled at 95° C. for 15 minutes. Protein samples were resolved on 4%-20% Biorad precast SDS-PAGE gels (#5671125) and transferred onto PVDF membranes (BioRad #1704157). Membranes were blocked in 5% non-fat dry milk in PBS 0.1% tween or in TBS 5% BSA 0.1% Tween to detect phosphorylated proteins. Primary antibodies were used at 1:1000:phospho-STING (clone-D7C3S), STING (clone-D2P2F), serine 172 phospho-TBK1 (clone-D52C2), TBK1 (clone-D11B4), serine 396 phospho IRF3 (clone-D6O1M), IRF3 (clone-D83B9), RELA (clone-C22B4), IRF7 (clone-12G9A36), cGAS (clone-D1 D3G), Actin (clone-C4), Sendai viral proteins (Biozol #MBL-PD029). Secondary anti-rabbit or anti-mouse antibody were used at 1:10,000 (santa cruz #sc-2357, #sc-516102). ECL signal (Biorad #1705061 and #1705062) was recorded on a ChemiDoc Touch Biorad Imager. Data was analyzed and quantified with Image Lab software (Biorad). In figures, dotted lines indicate reordering of lanes from a single original membrane for visualization purpose.

RELA K5R: RELA mutant converting five lysine residues (K122, K123, K310, K314, K315) to arginine, expressed from lentivector
cGAS localization (predominantly nuclear) (cGAS): remained unchanged
endogenous RELA expression ([1]; overexpression in CD4+ T cells and MDDC, FIG. 2C): no impact

B1: IRF3: interferon Regulatory Factor 3, over-expressed from lentivector (protein, UniProt Q14653 1-427, looked up)
Interferon regulatory factor 3: MGTPKPRILPWLVSQLDLGQLEGVAWVNKSRTRFRIPWKHGLRQDAQQEDFGIFQAWAEATGAYVPGRDKPDLPTWKRNFRSALNRKEGLRLAEDRSKDPHDPHKIYEFVNSGVGDFSQPDTSPDTNGGGSTSDTQEDILDELLGNMVLAPLPDPGPPSLAVAPEPCPQPLRSPSLDNPTPFPNLGPSENPLKRLLVPGEEWEFEVTAFYRGRQVFQQTISCPEGLRLVGSEVGDRTLPGWPVTLPDPGMSLTDRGVMSYVRHVLSCLGGGLALWRAGQWLWAQRLGHCHTYWAVSEELLPNSGHGPDGEVPKDKEGGVFDLGPFIVDLITFTEGSGRSPRYALWFCVGESWPQDQPWTKRLVMVKVVPTCLRALVEMARVGGASSLENTVDLHISNSHPLSLTSDQYKAYLQDLVEGMDFQGPGES
cGAS localization (predominantly nuclear) (cGAS): remained unchanged
phospho-IRF3 levels in response to cGAMP ([1]; IRF3 over-expression, equivalent in CD4+ T cells and MDDC, FIG. 3C): massive increase

From patent publication US20250213614A1, “Modified RELA Protein for Inducing Interferon Expression and Engineered Immune Cells with Improved Interferon Expression” (Institut Curie, priority 2022, published 2025)
